Assay results published in PubChem BioAssay AID2816 (Southern Research Specialized Biocontainment Screening …, 2010).
Calls of active or inactive are those of the source.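 Rule for the calls: active = compound-induced drop in polymyxin IC50 in wild-type bacteria exceeding double the drop in a mutant lacking PhoP; inactive = the rest.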

What was measured:
[1] = polymyxin sensitization in S. Typhimurium, mechanism study for PhoP regulon inhibitor project, Salmonella typhimurium, WT and phoP- strains, set 2 (AID 2816); conditions: S. Typhimurium polymyxin IC50 shift, OD600, 24 h, at 150 µM
[2] = test system: S. Typhimurium polymyxin IC50 shift, OD600, 24 h; experiment: as above
[3] = measured here: phoP- strain counter-screen shift
[4] = measured here: wild-type strain IC50 shift, stronger effect = higher value
[5] = WT polymyxin IC50 at 150 uM, stronger effect = lower value

SMILES | polymyxin IC50 shift difference WT - phoP- ([1]; stronger effect = higher value) | polymyxin IC50 shift [1, 3] | polymyxin IC50 shift [1, 4] | polymyxin IC50 [2, 5] | polymyxin IC50 ([2]; phoP- polymyxin IC50 at 150 uM) | IC50 [2]
O=C(Nc1ccc(Br)cc1)N1CCCN(Cc2ccccc2F)C1 | -2.51 (inactive) | 1.55 | -0.956 | 4820 nM | 2620 nM | –
O=C1C2=C(Nc3ccccc3SC2c2ccc(I)cc2)c2ccccc21 (stereo not drawn) | 1.63 (inactive) | 1.03 | 2.66 | 2470 nM | 2890 nM | –
O=C1C2=C(Nc3ccccc3SC2c2ccsc2)c2ccccc21 (stereo not drawn) | 2.14 (inactive) | -0.359 | 1.78 | 2670 nM | 3000 nM | –
COc1ccc(CNC(=S)Nc2ccncc2)cc1 | – | 1.46 | 10.1 | – | 4420 nM | 75000 nM
CCn1cc(C(=O)O)c(=O)c2cc(F)c(N3CCN(C(=S)Nc4ccccc4C(F)(F)F)CC3)cc21 | -3.38 (inactive) | 3.42 | 0.032 | 2590 nM | 2950 nM | –
COc1cccc(C2Sc3ccccc3NC3=C2C(=O)c2ccccc23)c1 (stereo not drawn) | -1.75 (inactive) | 5.35 | 3.6 | 2110 nM | – | –
